According to patent publication US9359308B2, “Pyrazine kinase inhibitors” (Portola Pharmaceuticals, Inc., priority 2011, dated 2016):
pIC50: −log10 of the molar value.

Each compound was assayed against T1, full length active recombinant SYK enzyme (Homo sapiens, UniProt P43405) (assay: Inhibition of Syk tyrosine phosphorylation activity (LANCE TR-FRET kinase assay)). Settings: activity in the Syk assays, class symbols.
T1 construct: full length active recombinant SYK enzyme (Millipore, Calif.); purchased Millipore
Format: biochemical
Text: The in vitro and in vivo human Syk activities of the inventive compounds can be determined by various procedures known in the art, such as a test for their ability to inhibit the activity of human plasma Syk. […] The IC50 value is the concentration (in nM) of the compound required to provide 50% inhibition of human Syk proteolytic activity.
An in vitro assay for detecting and measuring inhibition activity against Syk is as follows:
Inhibition of Syk Tyrosine Phosphorylation Activity
Potency of candidate molecules for inhibiting Syk tyrosine phosphorylation activity is assessed by measuring the ability of a test compound to inhibit Syk-mediated tyrosine phosphorylation of a Syk-specific substrate.
SYK tyrosine phosphorylation activity is measured using the LANCE™ Technology developed by Perkin Elmer Life and Analytical Sciences (Boston, Mass.). LANCE™ refers to homogeneous time resolved fluorometry applications using techniques such as time-resolved fluorescence resonance energy transfer assay (TR-FRET) (see generally for procedures in Perkin Elmer Application Note-How to Optimize a Tyrosine Kinase Assay Using Time Resolved Fluorescence-Based LANCE Detection, wwww.perkinelmer.com/lifesciences). The assay principle involves detection of a phosphorylated substrate using energy transfer from a phosphospecific europium-labeled antibody to streptavidin-allophycocyanin as an acceptor.
To test the ability of candidate molecules to inhibit SYK tyrosine phosphorylation activity, molecules are reconstituted in 30% DMSO and serially diluted 1:3 with the final dilution containing DMSO in the absence of the candidate molecule. The final DMSO concentration in the assay is 3%. Kinase assays are performed as a two part reaction. The first reaction is a kinase reaction and which comprises of a candidate molecule, full length active recombinant SYK enzyme (Millipore, Calif.) and biotin-labeled SYK-specific substrate biotin-DEEDYESP-OH. The second reaction involves termination of the kinase reaction and the simultaneous addition of the detection reagents-europium-labeled anti-phosphotyrosine reagent (Eu-W1024-PY100, Perkin Elmer, Boston, Mass.) and Streptavidin-Allophycocyanin detection reagent (SA-APC, Prozyme, CA). The kinase reaction is performed in a black U-bottom 96-well microtitre plate. The final reaction volume is 50 μL and contains a final concentration of 1 nM active SYK enzyme, 550 nM SYK-substrate, and 100 μM ATP diluted in a buffer containing 50 mM Tris pH 7.5, 5 mM MgCl2, and 1 mM DTT. The reaction is allowed to proceed for 1 hour at room temperature. The quench buffer contains 100 mM Tris pH 7.5, 300 mM NaCl2, 20 mM EDTA, 0.02% Brij35, and 0.5% BSA. The detection reagents are added to the reaction mixture at the following dilutions-1:500 for Eu-W1024-PY100 and 1:250 for SA-APC. The kinase reaction is terminated by the addition of 50 μL quench buffer containing the detection reagents. The detection is allowed to proceed for 1 hr at room temperature. Detection of the phosphorlated substrate in the absence and presence of inhibitors is measured in the TR-FRET instrument, Analyst HT (Molecular Probes, Sunnyvale, Calif.) and the condition for measurements are set up using CriterionHost Release 2.0 (Molecular Probes, Sunnyvale, Calif.). The settings used are a follows: excitation 360 nm, emission 665-7.5 nm, beam splitter 350 nm 50/50, flash 100 pulses, delay 60 us, integration 400 us, z-height 2 mm. Inhibition of SYK-tyrosine kinase activity is calculated as the maximum response observed in the presence of inhibitor, compared to that in the absence of inhibitor. IC50s were derived by non-linear regression analysis.
A pIC50 of 7.00 to 8.00 was found for `CC(C)C[C@@H](Nc1cnc(C(N)=O)c(Nc2ccc(-n3cccn3)cc2)n1)C(N)=O` [Example 71] in this work.
A pIC50 of 8.00 to 9.00 was found for `NC(=O)c1ncc(N[C@H](C2CC2)C2(N)CC2)nc1Nc1cccc(-c2ncccn2)c1` [Example 72, (R)-5-((1-aminocyclopropyl)(cyclopropyl)methylamino)-3-(3-(pyrimidin-2-yl)phenylamino)pyrazine-2-carboxamide] in this work.
A pIC50 of 8.00 to 9.00 was found for `CC[C@@H](Nc1cnc(C(N)=O)c(Nc2cnc3ccccc3c2)n1)C(N)=O` [Example 73, (R)-5-(1-amino-1-oxobutan-2-ylamino)-3-(quinolin-3-ylamino)pyrazine-2-carboxamide] in this work.
A pIC50 of 8.00 to 9.00 was found for `CC[C@@H](Nc1cnc(C(N)=O)c(Nc2ccc3ncccc3c2)n1)C(N)=O` [Example 74, (R)-5-(1-amino-1-oxobutan-2-ylamino)-3-(quinolin-6-ylamino)pyrazine-2-carboxamide] in this work.
A pIC50 of 8.00 to 9.00 was found for `CC[C@@H](Nc1cnc(C(N)=O)c(Nc2csc3ncccc23)n1)C(N)=O` [Example 75, (R)-5-(1-amino-1-oxobutan-2-ylamino)-3-(thieno[2,3-b]pyridin-3-ylamino)pyrazine-2-carboxamide] in this work.
A pIC50 of 8.00 to 9.00 was found for `NC(=O)c1ncc(N[C@@H](C(N)=O)C2CC2)nc1Nc1ccc2ncccc2c1` [Example 76, (R)-5-(2-amino-1-cyclopropyl-2-oxoethylamino)-3-(quinolin-6-ylamino)pyrazine-2-carboxamide] in this work.
A pIC50 of 8.00 to 9.00 was found for `CC[C@@H](Nc1cnc(C(N)=O)c(Nc2cc(C)cc(C)c2)n1)C(N)=O` [Example 77, (R)-5-(1-amino-1-oxobutan-2-ylamino)-3-(3,5-dimethylphenylamino)pyrazine-2-carboxamide] in this work.
A pIC50 of 8.00 to 9.00 was found for `Cc1ccc(Nc2nc(N[C@@H]3CCOC[C@@H]3N)cnc2C(N)=O)cc1` [Example 78, 5-((3R,4R)-3-aminotetrahydro-2H-pyran-4-ylamino)-3-(p-tolylamino)pyrazine-2-carboxamide] in this work.
A pIC50 of 8.00 to 9.00 was found for `NC(=O)c1ncc(N[C@@H]2CCOC[C@@H]2N)nc1Nc1cnc2ccccc2c1` [Example 79, 5-((3R,4R)-3-aminotetrahydro-2H-pyran-4-ylamino)-3-(quinolin-3-ylamino)pyrazine-2-carboxamide] in this work.
A pIC50 of 8.00 to 9.00 was found for `CC[C@@H](Nc1cnc(C(N)=O)c(Nc2ccc(-n3ccnc3)cc2)n1)C(N)=O` [Example 80, (R)-3-(4-(1H-imidazol-1-yl)phenylamino)-5-(1-amino-1-oxobutan-2-ylamino)-pyrazine-2-carboxamide] in this work.
A pIC50 greater than 9.00 was found for `NC(=O)c1ncc(N[C@@H]2CCOC[C@@H]2N)nc1Nc1cccc(-n2nccn2)c1` [Example 81, 3-(3-(2H-1,2,3-triazol-2-yl)phenylamino)-5-((3R,4R)-3-aminotetrahydro-2H-pyran-4-ylamino)pyrazine-2-carboxamide] in this work.
A pIC50 of 8.00 to 9.00 was found for `NC(=O)c1ncc(N[C@@H]2CCOC[C@@H]2N)nc1Nc1cccc(-c2ncccn2)c1` [Example 82, 5-((3R,4R)-3-aminotetrahydro-2H-pyran-4-ylamino)-3-(3-(pyrimidin-2-yl)phenylamino)pyrazine-2-carboxamide] in this work.
A pIC50 of 8.00 to 9.00 was found for `Cc1cncc(Nc2nc(N[C@H](CC(C)C)C(N)=O)cnc2C(N)=O)c1` [Example 83, (R)-5-(1-amino-4-methyl-1-oxopentan-2-ylamino)-3-(5-methylpyridin-3-ylamino)pyrazine-2-carboxamide] in this work.
A pIC50 of 8.00 to 9.00 was found for `Cc1cc(Nc2nc(N[C@H](CC(C)C)C(N)=O)cnc2C(N)=O)ccn1` [Example 84, (R)-5-(1-amino-4-methyl-1-oxopentan-2-ylamino)-3-(2-methylpyridin-4-ylamino)pyrazine-2-carboxamide] in this work.
A pIC50 of 7.00 to 8.00 was found for `CC(C)C[C@@H](Nc1cnc(C(N)=O)c(Nc2ccc(C(F)(F)F)nc2)n1)C(N)=O` [Example 85, (R)-5-(1-amino-4-methyl-1-oxopentan-2-ylamino)-3-(6-(trifluoromethyl)pyridin-3-ylamino)pyrazine-2-carboxamide] in this work.
A pIC50 of 7.00 to 8.00 was found for `Cc1ccc(Nc2nc(N[C@H](CC(C)C)C(N)=O)cnc2C(N)=O)cn1` [Example 86, (R)-5-(1-amino-4-methyl-1-oxopentan-2-ylamino)-3-(6-methylpyridin-3-ylamino)pyrazine-2-carboxamide] in this work.
A pIC50 of 8.00 to 9.00 was found for `CC(C)C[C@@H](Nc1cnc(C(N)=O)c(Nc2cccc(-c3ccncc3)c2)n1)C(N)=O` [Example 87, (R)-5-(1-amino-4-methyl-1-oxopentan-2-ylamino)-3-(3-(pyridin-4-yl)phenylamino)pyrazine-2-carboxamide] in this work.
A pIC50 of 8.00 to 9.00 was found for `CC(C)C[C@@H](Nc1cnc(C(N)=O)c(Nc2ccc(-c3ccccn3)cc2)n1)C(N)=O` [Example 88, (R)-5-(1-amino-4-methyl-1-oxopentan-2-ylamino)-3-(4-(pyridin-2-yl)phenylamino)pyrazine-2-carboxamide] in this work.
A pIC50 of 8.00 to 9.00 was found for `CC(C)C[C@@H](Nc1cnc(C(N)=O)c(Nc2ccc3c(c2)CCC(=O)N3C)n1)C(N)=O` [Example 89, (R)-5-(1-amino-4-methyl-1-oxopentan-2-ylamino)-3-(1-methyl-2-oxo-1,2,3,4-tetrahydroquinolin-6-ylamino)pyrazine-2-carboxamide] in this work.
A pIC50 of 8.00 to 9.00 was found for `CN1C(=O)CCc2cc(Nc3nc(N[C@@H]4CCCC[C@@H]4N)cnc3C(N)=O)ccc21` [Example 90, 5-((1R,2S)-2-aminocyclohexylamino)-3-(1-methyl-2-oxo-1,2,3,4-tetrahydroquinolin-6-ylamino)pyrazine-2-carboxamide] in this work.
A pIC50 of 8.00 to 9.00 was found for `COc1cc(Nc2nc(N[C@H]3CCCC[C@@H]3N)cnc2C(N)=O)cc(OC)c1` [Example 93, 5-(((1S,2S)-2-aminocyclohexyl)amino)-3-((3,5-dimethoxyphenyl)amino)pyrazine-2-carboxamide] in this work.
A pIC50 of less than 6.00 was found for `CC(C)C[C@@H](Nc1nc(Nc2cnc3ccccc3c2)cnc1C(N)=O)C(N)=O` [Example 95, (R)-3-(1-amino-4-methyl-1-oxopentan-2-ylamino)-5-(quinolin-3-ylamino)pyrazine-2-carboxamide] in this work.
A pIC50 of 7.00 to 8.00 was found for `NC(=O)c1ncc(Nc2cccc(-n3nccn3)c2)nc1N[C@@H]1CCCC[C@@H]1N` [Example 96, 5-(3-(2H-1,2,3-triazol-2-yl)phenylamino)-3-((1R,2S)-2-aminocyclohexylamino)pyrazine-2-carboxamide] in this work.
A pIC50 of less than 6.00 was found for `CC[C@@H](Nc1cnc(C(N)=O)c(-n2cnc(-c3ccc(N)cc3)c2)n1)C(N)=O` [Example 97, (R)-5-(1-amino-1-oxobutan-2-ylamino)-3-(4-(4-aminophenyl)-1H-imidazol-1-yl)pyrazine-2-carboxamide] in this work.
A pIC50 of 7.00 to 8.00 was found for `CC(C)C[C@@H](Nc1cnc(C(N)=O)c(Nc2cccc(-c3ccccn3)c2)n1)C(N)=O` [Example 98, (R)-5-(1-amino-4-methyl-1-oxopentan-2-ylamino)-3-(3-(pyridin-2-yl)phenylamino)pyrazine-2-carboxamide] in this work.
A pIC50 of 8.00 to 9.00 was found for `Cc1cncc(Nc2nc(N[C@H](CC3CC3)C(N)=O)cnc2C(N)=O)c1` [Example 99, (R)-5-(1-amino-3-cyclopropyl-1-oxopropan-2-ylamino)-3-(5-methylpyridin-3-ylamino)pyrazine-2-carboxamide] in this work.
A pIC50 of 7.00 to 8.00 was found for `Cc1cc(Nc2nc(N[C@H](CC3CC3)C(N)=O)cnc2C(N)=O)c[n+]([O-])c1` [Example 100, (R)-3-(6-(1-amino-3-cyclopropyl-1-oxopropan-2-ylamino)-3-carbamoylpyrazin-2-ylamino)-5-methylpyridine 1-oxide] in this work.
A pIC50 of 8.00 to 9.00 was found for `Cc1cc(Nc2nc(N[C@H](CC3CC3)C(N)=O)cnc2C(N)=O)ccn1` [Example 101, (R)-5-(1-amino-3-cyclopropyl-1-oxopropan-2-ylamino)-3-(2-methylpyridin-4-ylamino)pyrazine-2-carboxamide] in this work.
A pIC50 of 7.00 to 8.00 was found for `NC(=O)c1ncc(N[C@@H]2CCCC(F)(F)[C@@H]2N)nc1Nc1cnc2ccccc2c1` [Example 102, 5-((1R,2R)-2-amino-3,3-difluorocyclohexylamino)-3-(quinolin-3-ylamino)pyrazine-2-carboxamide] in this work.
